# Columns and labels:
# [1] = Kinetic measurements of TM3 reactivity with anthracycline compounds in methanol solvent; details: reaction with TM3, 25° C.
# Protocol: Kinetic measurements of TM3 reactivity
# with anthracycline compounds at 25° C. in methanol solvent.
# [2] = Kinetics of reaction of DHM3 with daunorubicin in water solvent; details: over the first 85 sec, water, 10° C., ten-fold excess DHM3
# Protocol: A test similar to that described for the same reaction in methanol solvent (vide supra) was run. Oxomorpholinyl dimer DHM3 (1.38 mg, 4.37×10^-3 mmol) was dissolved in 0.5 ml of oxygen-free methanol and quickly transferred without delay into one compartment of the cell. The solvent was promptly removed under vacuum. Daunorubicin hydrochloride ([…]) was dissolved in 100 ml of an aqueous solution of Tris (24.2 mg) and Tris hydrochloride (31.6 mg) and 2.6 ml of this solution (4.18×10^-4 mmol of 6) was introduced into the other compartment of the cell. The sample was freeze-thaw degassed over three cycles as described above, sealed, and placed in a thermostatted cell holder at 10.0±0.1° C. for about 20 min prior to mixing. Full spectra between 320 and 800 nm were recorded every 10 sec for the first 125 sec, and then every 20 sec. From the absorbance change at 620 nm over the first 85 sec (50% reaction of daunorubicin), a non-linear least-squares treatment gave a first order rate constant for bond homolysis of DHM3 (k1) equal to 6×10^-4 sec^-1 and a first order rate constant for destruction of 7 (k2) equal to 2×10^-2 sec^-1. Treatment of the data obtained in the 164-225 sec interval gave k2 =2.8×10^-2 sec^-1.
# Thus, when a ten-fold excess of DHM3 is reacted with an oxygen-free 2×10^-4 M solution of 6 in buffered water (pH8) at 10° C., the absorbance of the solution at 618-620 nm, due to the tautomer 7, reaches its maximum after 125 sec and then decreases quickly, with an 80% decrease in 100 sec. Here again the formation and destruction of 7, as calculated from the data obtained in the first 85 sec of reaction, follows consecutive first order kinetics, first order in DHM3 and 7, with k1 =6×10^-4 sec^-1, k2 =2×10^-2 sec^-1 and ε7 =9600. Calculation of k2 from the absorbance data taken after 165 sec of reaction time, when only first order destruction of 7 is observed, gives a value of 2.8×10^-2 sec^-1.
# [3] = Solubility of 7-deoxydaunorubicinone in the aqueous reaction medium; type: physicochemical; details: water, pH8
# [4] = test system: swine skin; assay: Skin lesions after intradermal DOX in swine; type: in vivo, miniature white swine
# Protocol: In order to produce anthracycline induced tissue damage, clinical grade doxorubicin (DOX) hydrochloride was obtained as a representative anthracycline chemical from the Drug Synthesis Branch, Developmental Therapeutics Program, National Cancer Institute. Each vial contained 10 mg DOX hydrochloride and 50 mg lactose which was reconstituted with 5.0 ml sterile 0.9% NaCl solution to give a final drug concentration of 2.0 mg/ml. DHM3 solution was prepared by dissolving 10 mg in ice-cold water which had been purged with N2 gas for 5 minutes. Dissolution was facilitated by brief sonication to give a final concentration of 10 mg/ml. The solution was kept cold (≈4° C.) and protected from air and light.
# Female weanling miniature white swine weighing approximately 12 kg were obtained from the Veterinary Resources Branch, National Institutes of Health. The development of this strain of swine has been described previously (Sachs, et al., Transplantation 22:559-567, 1976). Each animal was housed in a 6×4 ft metabolic cage and was fed standard NIH show chow, 1.5 lbs twice daily.
# DOX HCl (2.0 mg/ml) was administered intradermally (i.d.) with a 25 gauge needle inserted approximately 4 to 5 mm into the skin. Following the injection of 0.5, 0.75 or 1.0 ml (1.0, 1.5, or 2.0 mg, respectively) DOX solution, the syringe was removed from the hub leaving the needle in place. After the indicated time interval, 1.0 ml (10 mg) DHM3 was injected through the same needle and the needle was then removed. Control sites received 1.0 ml sterile water instead of DHM3. The injection sites were along the mid-lateral aspect of each side of the swine and were 4-5 cm apart (6-8 injection sites per side). One animal was used for a dose experiment where DOX, 0.5 ml/site was injected along one side and 1.0 ml/site was injected along the contralateral side. Fifteen minutes later, DHM3 or water was injected into alternating sites as described above. A second animal received DOX, 0.75 ml/site along both sides. DHM3 or water was injected into alternating sites at times varying from 5 to 120 minutes following DOX administration.
# All lesions were measured by a single observer with metric calipers three times weekly for two weeks, followed by weekly measurements thereafter. The areas of skin ulceration and induration were estimated by the product of the cross perpendicular diameters. The total toxicity of DOX-induced skin ulceration was determined by calculating the area under the ulceration-time curve (AUC) in mm^2 -days.
# In order to assess the extent of tissue injury following intradermal DOX or DHM3, incisional biopsies were performed on representative lesions 6 and 20 days following drug injection. These samples were placed in 10% buffered formalin and processed for examination by standard light microscopy (Pathco Inc., Potomac, MD.).
# [5] = test system: DOX-induced injury; details: cited from earlier work; for reduction of size of ulceration: animal models
smiles,measurement,setting,value
CC[C@@]1(O)C[C@H](O[C@H]2C[C@H](N(C)C)[C@H](O[C@H]3C[C@H](O)[C@H](O[C@H]4CCC(=O)[C@H](C)O4)[C@H](C)O3)[C@H](C)O2)c2c(cc3c(c2O)C(=O)c2c(O)cccc2C3=O)[C@H]1C(=O)OC [ACLARUBICIN],RATE CONSTANT k2,[1],0.0009 s⁻¹
"COc1cccc2c1C(=O)c1c(O)c3c(c(O)c1C2=O)C[C@@](O)(C(C)=O)C[C@@H]3O[C@H]1C[C@H](N)[C@H](O)[C@H](C)O1 [daunorubicin, reference compound]",reaction of daunorubicin,[2],50%
same,RATE CONSTANT k2,[1],0.013 s⁻¹
"CC(=O)C1(O)Cc2c(O)c3c(c(O)c2C(OC2CC(N)C(O)C(C)O2)C1)C(=O)c1ccccc1C3=O (stereo not shown) [4-DEMETHOXYDAUNORUBICIN, 4-demethoxydaunorubicin]",RATE CONSTANT k2,[1],0.009 s⁻¹
"COc1cccc2c1C(=O)c1c(O)c3c(c(O)c1C2=O)CC(O)(C(C)=O)CC3 (stereo not shown) [compound 8, 7-deoxydaunorubicinone]",solubility,[3],sparingly soluble
"COc1cccc2c1C(=O)c1c(O)c3c(c(O)c1C2=O)C[C@@](O)(C(=O)CO)C[C@@H]3O[C@H]1C[C@H](N)[C@H](O)[C@H](C)O1 [DOX, doxorubicin]",RATE CONSTANT k2,[1],0.011 s⁻¹
same,dose dependence of skin ulceration size,[4]; DOX 0.5 to 1.0 ml (2.0 mg/ml) i.d.,linearly dependent on the dose
same,start of ulcer formation following DOX,[4]; DOX i.d.,7 to 8 days
same,time to complete healing of ulcer,[4]; DOX i.d.,≤ 7 weeks
same,time to maximal ulcer size following DOX,[4]; DOX i.d.,3 weeks
same,microscopic appearance of lesions,"[4]; DOX i.d., biopsy","extensive coagulation-type necrosis of epidermis, dermis, and subcutaneous tissue, including muscle"
same,"ulcer following DOX, compared with present results","[5]; 2 mg/site i.d., swine, Okano et al. 1983",smaller and more variable ulcer
C[S+](C)[O-] [dimethyl sulfoxide],reduction of size of ulceration,[5],purported to reduce the size of ulceration in some animal models but not in all
same,severity of DOX-induced injury,"[5]; swine model, Okano et al. 1983",appeared to ameliorate the severity of injury
Cc1c(C)c2c(c(C)c1O)CCC(C)(CCCC(C)CCCC(C)CCCC(C)C)O2 (stereo not drawn) [alpha-tocopherol],reduction of size of ulceration,[5],purported to reduce the size of ulceration in some animal models but not in all
CO[C@@H]1C[C@](C)(O)Cc2cc3c(c(O)c21)C(=O)c1c(O)cc2c(c1C3=O)O[C@@H]1O[C@@]2(C)[C@H](O)[C@@H](N(C)C)[C@@H]1O [MENOGARIL],RATE CONSTANT k2,[1],0.0025 s⁻¹

# From patent US4632922A, “Oxomorpholinyl dimer and rescue of anthracycline and mitomycin C damage” (The United States of America as represented by the …, priority 1985, dated 1986)
